Measured values reported in US10709788B2, “Chitosan magnetic particle drug carrier, drug structure, and method of making” (GENE'E TECH CO., LTD., priority 2018, dated 2020).
Values after ≈ are worked out from the molar mass of the structure shown. Like-named read-outs stand apart in the source and are kept apart here.

Legend:
H. pylori [1] = assay: Test of inhibition of H. pylori by drug structure (OD 450 nm, bacterial inhibition rate); assay type: cell-based; conditions: seven strains; added at minimum inhibitory concentration; 37° C., anaerobic, 48 hours
Procedure: First, bacterial fluids of seven different strains of H. pylori are provided. […] The bacterial fluids of the seven different strains of H. pylori are placed in four 15 ml microcentrifuge tubes, respectively. Each microcentrifuge tube contains 5 ml of H. pylori bacterial fluid. The four microcentrifuge tubes are defined as experimental group 1, experimental group 2, experimental group 3 and control group, respectively. Then, amoxicillin of the minimum inhibitory concentration is added to experimental group 1 of each strain of H. pylori, sample 3 (i.e., drug carrier) of the minimum inhibitory concentration is added to experimental group 2 of each strain of H. pylori, sample C (i.e., drug structure) of amoxicillin of the minimum inhibitory concentration is added to experimental group 3 of each strain of H. pylori, and nothing is added to the control group. Afterward, experimental groups 1-3 and control group of each strain of H. pylori are placed in an incubator to be cultured therein at 37° C., in an anaerobic environment, and for 48 hours. At the end of the 48-hour culturing process, bacterial fluids are extracted from the experimental groups 1-3 and control group of the strains of H. pylori, respectively. OD values of the bacterial fluid of the experimental groups and the bacterial fluid of the control group are measured with a spectrophotometer at a wavelength of 450 nm. […]

H. pylori [2] = assay: minimum inhibitory concentrations (MIC) for seven strains of H. pylori; assay type: cell-based; conditions: Helicobacter pylori, read-out: minimum inhibitory concentration (MIC)

MIC (H. pylori [2]; H. pylori strain NO. 125-54): 0.5 µg/mL (≈ 1.37 µM)
MIC (H. pylori [2]; H. pylori strain NO. 125-56): 0.25 µg/mL (≈ 0.684 µM)
MIC (H. pylori [2]; H. pylori strain NO. 125-57): 0.25 µg/mL (≈ 0.684 µM)
MIC (H. pylori [2]; H. pylori strain NO. 126-6): 0.016 µg/mL (≈ 0.0438 µM)
MIC (H. pylori [2]; H. pylori strain NO. 127-4): 0.0625 µg/mL (≈ 0.171 µM)
MIC (H. pylori [2]; H. pylori strain NO. 127-9): 0.0625 µg/mL (≈ 0.171 µM)
MIC (H. pylori [2]; H. pylori strain NO. 127-10): 0.125 µg/mL (≈ 0.342 µM)
SMILES: CC1(C)S[C@@H]2[C@H](NC(=O)[C@H](N)c3ccc(O)cc3)C(=O)N2[C@H]1C(=O)O [amoxicillin]
inhibitory effect on H. pylori (H. pylori [1]): different degrees of inhibition efficacy
